According to patent publication US9789116B2, “Compositions and methods of modulating short-chain dehydrogenase activity” (CASE WESTERN RESERVE UNIVERSITY, priority 2013, dated 2017):

What was measured:
Type in all cases: in vivo, mouse
C57BL/6J female mice = assay: Survival after whole body irradiation; details: for Number of mice surviving: cohort of 3
[1] = test system: lethally irradiated CD45.1 mice; assay: Competitive bone marrow transplant, CD45.2 chimerism
Description: On day 3 mice were sacrificed, marrow flushed and mixed at a 1:1 ratio with vehicle treated CD45.1 marrow. 2 million whole BM cells were injected into the tail vein of lethally irradiated CD45.1 mice and percent chimerism measured via flow cytometry at weeks 8, 12, 16.

[2] = test system: mice irradiated with 11Gy; assay: Survival of mice following bone marrow transplant (Example 11)
Text: A matched control cohort received injections with vehicle only. On day one mice received an infusion of donor marrow at doses of 100,000 cells; 200,000 cells; or 500,000 cells. […] Among mice receiving 200,000 donor cells, all control mice were dead by day 12.

NSG mice = assay: Homing of human umbilical cord blood buffy coat cells in NSG mice
Description: FIG. 93 illustrates a schema of an experiment in which immune deficient NSG mice are lethally irradiated (IR) and 12 hours later receive a transplant with CFSE dye labeled buffy coat cells from human umbilical cord blood (UCB), and number of transplanted cells that home and survive in the bone marrow of the recipient mice are then determined by FACS at 16 hours post-transplant. In different arms of the experiment mice are treated with vehicle or with SW033291. Drugs are administered following radiation, following the transplant, and again at 8 hours after the transplant.

[3] = test system: bone marrow SKL cells and stromal cells; assay: Gene expression in bone marrow SKL and CD45(-) stromal cells of treated mice
Description: 2 hours following the last dose bone marrow is harvested and sorted into SKL marked cells that are hematopoietic stem cell enriched and into CD45 (−) cells that are bone marrow stroma cells. RNA was extracted and gene expression determined relative to levels in mice injected with vehicle control.

CCCC[S+]([O-])c1sc2nc(-c3cccs3)cc(-c3ccccc3)c2c1N (stereo not shown) [SW033291, 2-(butylsulfinyl)-4-phenyl-6-(thiophen-2-yl)thieno[2,3-b]pyridin-3-amine]
Number of mice surviving (C57BL/6J female mice; 7 Gy, 5 mg/kg IP daily for 7 doses, Day 10): 3
Number of mice surviving (C57BL/6J female mice; 7 Gy, 5 mg/kg IP daily for 7 doses, Day 11): 3
Number of mice surviving (C57BL/6J female mice; 7 Gy, 5 mg/kg IP daily for 7 doses, Day 12): 3
Number of mice surviving (C57BL/6J female mice; 7 Gy, 5 mg/kg IP daily for 7 doses, Day 13): 3
Number of mice surviving (C57BL/6J female mice; 7 Gy, 5 mg/kg IP daily for 7 doses, Day 14): 3
Number of mice surviving (C57BL/6J female mice; 7 Gy, 5 mg/kg IP daily for 7 doses, Day 15): 3
Appearance of mice (C57BL/6J female mice; 7 Gy, Day 25, printed 'Looks Healthy' over two lines): Healthy
Number of mice surviving (C57BL/6J female mice; 9 Gy, 5 mg/kg IP daily for 7 doses, Day 5): 3
Number of mice surviving (C57BL/6J female mice; 9 Gy, 5 mg/kg IP daily for 7 doses, Day 6): 3
Number of mice surviving (C57BL/6J female mice; 9 Gy, 5 mg/kg IP daily for 7 doses, Day 7): 3
Number of mice surviving (C57BL/6J female mice; 9 Gy, 5 mg/kg IP daily for 7 doses, Day 8): 3
Number of mice surviving (C57BL/6J female mice; 9 Gy, 5 mg/kg IP daily for 7 doses, Day 9): 3
Number of mice surviving (C57BL/6J female mice; 9 Gy, 5 mg/kg IP daily for 7 doses, Day 10): 3
Number of mice surviving (C57BL/6J female mice; 9 Gy, 5 mg/kg IP daily for 7 doses, Day 11): 3
Number of mice surviving (C57BL/6J female mice; 9 Gy, 5 mg/kg IP daily for 7 doses, Day 12): 2
Number of mice surviving (C57BL/6J female mice; 9 Gy, 5 mg/kg IP daily for 7 doses, Day 13): 2
Number of mice surviving (C57BL/6J female mice; 9 Gy, 5 mg/kg IP daily for 7 doses, Day 14): 1
Number of mice surviving (C57BL/6J female mice; 9 Gy, 5 mg/kg IP daily for 7 doses, Day 15): 0
longer survival than vehicle control (C57BL/6J female mice; 11Gy, 5 mg/kg IP daily for 7 doses): 48 h
Number of mice surviving (C57BL/6J female mice; 11 Gy, 5 mg/kg IP daily for 7 doses (Table 6), Day 5): 3
Number of mice surviving (C57BL/6J female mice; 11 Gy, 5 mg/kg IP daily for 7 doses (Table 6), Day 6): 3
Number of mice surviving (C57BL/6J female mice; 11 Gy, 5 mg/kg IP daily for 7 doses (Table 6), Day 7): 3
Number of mice surviving (C57BL/6J female mice; 11 Gy, 5 mg/kg IP daily for 7 doses (Table 6), Day 8): 3
Number of mice surviving (C57BL/6J female mice; 11 Gy, 5 mg/kg IP daily for 7 doses (Table 6), Day 9): 2
Number of mice surviving (C57BL/6J female mice; 11 Gy, 5 mg/kg IP daily for 7 doses (Table 6), Day 10): 0
Number of mice surviving (C57BL/6J female mice; 11 Gy, 1 dose/daily for 7 days (Table 7), Day 5): 3
Number of mice surviving (C57BL/6J female mice; 11 Gy, 1 dose/daily for 7 days (Table 7), Day 6): 3
Number of mice surviving (C57BL/6J female mice; 11 Gy, 1 dose/daily for 7 days (Table 7), Day 7): 3
Number of mice surviving (C57BL/6J female mice; 11 Gy, 1 dose/daily for 7 days (Table 7), Day 8): 2
Number of mice surviving (C57BL/6J female mice; 11 Gy, 1 dose/daily for 7 days (Table 7), Day 9): 1
Number of mice surviving (C57BL/6J female mice; 11 Gy, 1 dose/daily for 7 days (Table 7), Day 10): 0
Number of mice surviving (C57BL/6J female mice; 11 Gy, 1 dose/daily, continuous every day, Day 5): 3
Number of mice surviving (C57BL/6J female mice; 11 Gy, 1 dose/daily, continuous every day, Day 6): 3
Number of mice surviving (C57BL/6J female mice; 11 Gy, 1 dose/daily, continuous every day, Day 7): 3
Number of mice surviving (C57BL/6J female mice; 11 Gy, 1 dose/daily, continuous every day, Day 8): 3
Number of mice surviving (C57BL/6J female mice; 11 Gy, 1 dose/daily, continuous every day, Day 9): 2
Number of mice surviving (C57BL/6J female mice; 11 Gy, 1 dose/daily, continuous every day, Day 10): 0
Number of mice surviving (C57BL/6J female mice; 11 Gy, 7 days, 2 dose daily, Day 5): 3
Number of mice surviving (C57BL/6J female mice; 11 Gy, 7 days, 2 dose daily, Day 6): 3
Number of mice surviving (C57BL/6J female mice; 11 Gy, 7 days, 2 dose daily, Day 7): 3
Number of mice surviving (C57BL/6J female mice; 11 Gy, 7 days, 2 dose daily, Day 8): 3
Number of mice surviving (C57BL/6J female mice; 11 Gy, 7 days, 2 dose daily, Day 9): 2
Number of mice surviving (C57BL/6J female mice; 11 Gy, 7 days, 2 dose daily, Day 10): 0
longer survival than vehicle control, on average (C57BL/6J female mice; 11Gy, any of three 5 mg/kg dosing schedules): 1 to 2 days
percent blood chimerism of CD45.2 marked cells ([1]; donor 5 mg/kg IP daily for 3 doses, weeks 12 and 16): significantly increased
contribution to B and T cell populations ([1]; week 16): significant increase in contribution to B and T cell populations
median survival ([2]; 100,000 donor cells, 5 mg/kg twice daily): approximate doubling of median survival
survival ([2]; 200,000 donor cells, 30 days of observation): survived at 30 days of observation
survival ([2]; 500,000 donor cells, day 30): all survived
increase in numbers of homed human cells in recipient bone marrow (NSG mice): ~2 fold
induction of CXCL12 [3]: greater than 4 fold
induction of SCF [3]: greater than 4 fold
